Consider 12 compounds from US5807671A (priority 1995, dated 1998).

“Also recorded” adds a separate entry of the source. Where only a bound is given, the exact number is not on record here.

One data set has as its target AChE E6 (Homo sapiens, UniProt P22303). The format is biochemical.
Another data set has as its target BuChE "atypical" (Homo sapiens, UniProt P06276, D98G).
A further data set deals with AChE E5 (Homo sapiens, UniProt P22303). The format is biochemical.
Another data set has as its target BuChE normal (Homo sapiens, UniProt P06276). The format is biochemical.
Another data set concerns AChE. The format is biochemical, human.
Data set [1] has as its system normal and "atypical" BuChE. The format is biochemical, human.
The subject of another data set is "atypical" serum BuChE. The format is biochemical, human.
The test system of a further data set is serum BuChE. The conditions noted are these: in vivo; cited from earlier work.
For data set [2], the system named is ChEs (all of the examined enzymes). The format is biochemical, human.
A further data set has as its system normal serum BuChE. The format is biochemical, human. Particulars: 30 min, 10 µM.
Data set [3] deals with BuChE from heterozygous serum. The format is biochemical, human. Particulars: 30 min, 10 µM.
Another data set relates to REM sleep. Particulars: in vivo; cited from earlier work.
In the next data set the test system is Parkinson's disease. The conditions noted are these: human, in vivo; cited from earlier work.
The conditions of data set [4]: human, in vivo; cited from earlier work.
A further data set deals with serum BuChE "atypical" (Homo sapiens, UniProt P06276, D98G).
Data set [5] relates to Alzheimer's disease. Particulars: in vivo; cited from earlier work.
Data set [6] relates to BuChE of heterozygotes / 1:1 mixture of normal and "atypical" BuChE.
The test system of data set [7] is "atypical" BuChE. The conditions noted are these: cited from earlier work.
For data set [8], the system named is "atypical" BuChE. The conditions noted are these: cited from earlier work. The source holds these as a separate data set.
The subject of data set [9] is "atypical" BuChE. The conditions noted are these: cited from earlier work. The source holds these as a separate data set.
Data set [10] deals with Alzheimer's disease. Particulars: in vivo; cited from earlier work. This is another data set of the same source.
The conditions of data set [11]: in vivo.
For data set [12], the system named is "atypical" BuChE. The format is biochemical, human.
A further data set has as its system horse serum BuChE. Particulars: cited from earlier work.
For data set [13] the following is noted: in vivo. This is another data set of the same source.

Sequence of AChE E5 (P22303-4 with tags, fused parts or gaps limits assumed): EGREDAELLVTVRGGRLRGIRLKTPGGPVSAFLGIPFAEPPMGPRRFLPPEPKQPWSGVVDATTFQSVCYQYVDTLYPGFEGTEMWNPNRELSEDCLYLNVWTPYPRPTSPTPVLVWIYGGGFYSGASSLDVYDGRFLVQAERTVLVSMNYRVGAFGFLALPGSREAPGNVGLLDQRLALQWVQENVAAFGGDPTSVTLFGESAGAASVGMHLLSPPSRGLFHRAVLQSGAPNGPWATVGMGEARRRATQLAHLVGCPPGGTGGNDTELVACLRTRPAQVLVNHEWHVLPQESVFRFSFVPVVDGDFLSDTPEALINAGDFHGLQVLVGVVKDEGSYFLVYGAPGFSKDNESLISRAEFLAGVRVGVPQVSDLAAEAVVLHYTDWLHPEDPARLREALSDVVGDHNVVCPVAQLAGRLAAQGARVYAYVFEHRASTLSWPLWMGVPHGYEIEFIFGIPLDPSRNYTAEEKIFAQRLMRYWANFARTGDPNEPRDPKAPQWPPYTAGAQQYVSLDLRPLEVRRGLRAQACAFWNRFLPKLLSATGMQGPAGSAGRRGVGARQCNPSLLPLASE
Sequence of BuChE "atypical" (P06276 29-602 D98G limits assumed): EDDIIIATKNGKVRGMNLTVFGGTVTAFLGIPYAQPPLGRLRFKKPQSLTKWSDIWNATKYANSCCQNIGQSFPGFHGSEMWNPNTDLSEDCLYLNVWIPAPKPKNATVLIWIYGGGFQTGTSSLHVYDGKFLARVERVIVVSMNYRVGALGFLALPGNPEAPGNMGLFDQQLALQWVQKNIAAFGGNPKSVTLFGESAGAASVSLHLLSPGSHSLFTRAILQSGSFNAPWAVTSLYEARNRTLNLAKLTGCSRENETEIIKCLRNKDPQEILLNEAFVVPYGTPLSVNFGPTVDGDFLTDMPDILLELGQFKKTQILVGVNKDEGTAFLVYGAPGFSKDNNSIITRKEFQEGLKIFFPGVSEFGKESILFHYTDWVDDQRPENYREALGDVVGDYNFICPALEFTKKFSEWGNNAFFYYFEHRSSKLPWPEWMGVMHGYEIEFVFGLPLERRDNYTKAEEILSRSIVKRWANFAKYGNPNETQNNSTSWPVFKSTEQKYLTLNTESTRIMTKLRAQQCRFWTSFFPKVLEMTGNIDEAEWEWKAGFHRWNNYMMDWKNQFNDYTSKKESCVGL
Sequence of BuChE normal (P06276 29-602): as the sequence (P06276 29-602 D98G limits assumed) above, with G70D counted along it
Sequence of AChE E6 (P22303 32-614): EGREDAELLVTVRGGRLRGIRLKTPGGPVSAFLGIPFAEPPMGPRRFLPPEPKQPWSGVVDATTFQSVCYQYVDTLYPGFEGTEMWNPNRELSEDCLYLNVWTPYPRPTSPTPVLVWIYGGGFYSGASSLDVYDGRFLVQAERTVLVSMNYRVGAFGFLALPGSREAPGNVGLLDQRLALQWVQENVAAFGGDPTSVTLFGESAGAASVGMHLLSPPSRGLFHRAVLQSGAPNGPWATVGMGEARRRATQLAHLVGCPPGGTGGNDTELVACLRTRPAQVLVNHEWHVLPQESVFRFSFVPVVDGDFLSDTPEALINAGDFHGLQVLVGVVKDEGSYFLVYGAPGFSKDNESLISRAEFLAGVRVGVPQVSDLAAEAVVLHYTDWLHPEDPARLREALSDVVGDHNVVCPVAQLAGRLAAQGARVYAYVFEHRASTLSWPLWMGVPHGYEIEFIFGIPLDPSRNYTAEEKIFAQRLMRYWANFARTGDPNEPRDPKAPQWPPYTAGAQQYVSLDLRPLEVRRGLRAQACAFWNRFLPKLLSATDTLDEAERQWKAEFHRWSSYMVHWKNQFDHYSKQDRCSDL
Sequence of serum BuChE "atypical" (P06276 29-602 D98G limits assumed): as the sequence (P06276 29-602 D98G limits assumed) above

As for `CCCCCCCNC(=O)Oc1ccc2c(c1)C1(C)CCN(C)C1N2C` (single isomer, unassigned) [N-heptyl physostigmine], the “second order rate constants, ki, for inactivation” value (shortened to “second order rate constants, ki”) was 1.6 × 10^6 on AChE E6, 7.7 × 10^5 ± 4.4 × 10^5 on BuChE "atypical", 1.4 × 10^6 on AChE E5 and 1.1 × 10^7 ± 0.3 × 10^7 on BuChE normal. Besides, the “inactivation rates of "atypical" BuChE” value on BuChE "atypical" was “considerably lower rates”. Also, the “inactivation rates of common BuChE compared with AChE” value at BuChE normal is reported as “higher than or equal to”. This compound also returned a reactivation in the data set on AChE of 5%. In data set [1], this compound had an original activity regained of 10%. Further, the “reaction of "atypical" BuChE with carbamates, compared with its normal counterpart” value (shortened to “reaction … compared with its normal counterpart”) in the data set on "atypical" serum BuChE is reported as “much slower”.

`CCN(C)C(=O)Oc1cccc([C@H](C)N(C)C)c1` [SDZ ENA-713]: the “serum BuChE activity” value in the data set with serum BuChE is on record as “transient drop in serum BuChE activity”. Moreover, the “second order rate constants, ki” value at AChE E6 is recorded as 4.3 × 10^3; on BuChE "atypical" it was 4.7 × 10^2 ± 4.6 × 10^2; on AChE E5, 3.3 × 10^3; at BuChE normal, 1.4 × 10^4 ± 0.3 × 10^4. Further, the “inactivation rates of "atypical" BuChE” value at BuChE "atypical" is reported as “considerably lower rates”. This compound also yielded a reactivation levels in data set [2] of at most 8%. Moreover, at BuChE normal, the “inactivation rates of common BuChE compared with AChE” value is “higher than or equal to”. Moreover, the “loss of BuChE activity” value in the data set on normal serum BuChE is 95%; in data set [3], 80%. In addition, the “frequency of rapid eye movements during REM sleep” value with REM sleep is “increase the frequency of rapid eye movements during REM sleep”. The “reaction … compared with its normal counterpart” value with "atypical" serum BuChE is “much slower”. Also, in the data set with "atypical" serum BuChE (serum, 30 min, 10 µM), the “decrease in BuChE activity” value is “about 40%”.

For `Nc1c2c(nc3ccccc13)CCCC2` [Tacrine, 1,2,3,4-tetrahydro-9 aminoacridine], in the data set with serum BuChE, the “serum BuChE activity” value is “transient drop in serum BuChE activity”. For the same compound, the “symptoms of PD patient” value in the data set on Parkinson's disease is reported as “worsening of the symptoms”. In addition, in data set [4], the “cases in which aminotransferase reached 20 times the upper limit of normal” value is reported as 2%; the “patients with severe cholinergic side-effects” value was “over 10%”; the “serum alanine aminotransferase level in 2% of the cases” value is 20 times the upper limit of normal; the “serum alanine aminotransferase level, usually” value is given as “less than three times the upper limit of normal value”. Further, on serum BuChE "atypical", the “capacity of "atypical" BuChE to interact with tacrine, compared with the normal enzyme” value is given as “drastic reduction”. Besides, in the data set with Alzheimer's disease [5], the “improvement in Alzheimer's disease patients” value is “statistically significant, dose-related improvements”. In [6], the “inhibition curves of mixtures of normal and "atypical" enzyme” value is on record as “expected intermediary inhibition curves”; the “inhibition in the presence of 1 μm tacrine” value is reported as “intermediate levels of activity”.

As to `CC(=O)Oc1ccccc1C(=O)O` [aspirin], the “Km with "atypical" variant, higher than with usual enzyme” value (shortened to “Km with "atypical" variant, higher than”) in the data set with "atypical" BuChE [7] is listed as about 4 fold.

For the compound `CN(C)C(=O)Oc1cc(OC(=O)N(C)C)cc(C(O)CNC(C)(C)C)c1` (stereo not drawn) [bambuterol], in the data set on "atypical" BuChE [8], the “IC50, higher for "atypical" than wild-type BuChE” value is recorded as “at least 10 fold” and the “Ki, higher for "atypical" than wild-type BuChE” value was “at least 10 fold”.

Regarding `CCCCOc1cc(C(=O)NCCN(CC)CC)c2ccccc2n1` [dibucaine], the “hydrolysis by "atypical" BuChE” value in the data set on "atypical" BuChE [9] is on record as “inability of the affected enzyme to hydrolyze”.

Regarding `CC(=O)Oc1ccc2c3c1O[C@H]1[C@@H](OC(C)=O)C=C[C@H]4[C@@H](C2)N(C)CC[C@@]341` [heroin], the “Km with "atypical" variant, higher than” value in the data set with "atypical" BuChE [7] is recorded as 4 fold.

For the compound `CC(C)NP(=O)(NC(C)C)OP(=O)(NC(C)C)NC(C)C` [iso-OMPA], the “sensitivity of the atypical variant to inhibitors” value in the data set on "atypical" BuChE [8] is reported as “much less sensitive”.

As to `CNC(=O)Oc1ccc2c(c1)[C@]1(C)CCN(C)[C@@H]1N2C` [physostigmine], on BuChE "atypical", the “inactivation rates of "atypical" BuChE” value is on record as “considerably lower rates” and the “second order rate constants, ki” value is recorded as 2.6 × 10^4 ± 0.9 × 10^4. Besides, on BuChE normal, the “inactivation rates of common BuChE compared with AChE” value is listed as “higher than or equal to” and the “second order rate constants, ki” value is listed as 3.8 × 10^5 ± 1.6 × 10^5. Moreover, in the data set on "atypical" BuChE [8], the “IC50, higher for "atypical" than wild-type BuChE” value is recorded as “at least 10 fold”; the “Ki, higher for "atypical" than wild-type BuChE” value was “at least 10 fold”; the “sensitivity of the atypical variant to inhibitors” value is “much less sensitive”. The spontaneous reactivation result in the data set on AChE is on record as “up to 90%”. For the same compound, the “effect on cognitive functions” value in the data set with Alzheimer's disease [10] is recorded as “small, short-term positive effect on cognitive functions”. In addition, the “reaction … compared with its normal counterpart” value in the data set on "atypical" serum BuChE was “much slower”.

Regarding `CCN(CC)CCOC(=O)c1ccc(N)cc1` [procaine], in the data set on "atypical" BuChE [7], the “Km with "atypical" variant, higher than” value is 15 fold.

On to `CN(C)C(=O)Oc1ccc[n+](C)c1` [pyridostigmine], for which the “second order rate constants, ki” value was 2.2 × 10^4 on AChE E6, 2.5 × 10^4 at AChE E5 and 1.9 × 10^3 ± 0.2 × 10^3 at BuChE normal. Also, the “adverse symptoms under pyridostigmine” value in data set [11] is “insomnia, weight loss and general fatigue, which worsened consistently, and a deep depression”. The values for the reactivation (with AChE; in data set [1]) were 50% and 10%, respectively. Also, the “reaction … compared with its normal counterpart” value with "atypical" serum BuChE is listed as “much slower”.

Regarding `C[N+](C)(C)CCOC(=O)CCC(=O)OCC[N+](C)(C)C` [succinylcholine], the “hydrolysis by serum BuChE of H. K.” value in the data set with "atypical" BuChE [12] is on record as “totally incapable of hydrolyzing; also recorded: cannot hydrolyze”. Further, the “hydrolysis by horse serum BuChE” value in the data set with horse serum BuChE is “will not hydrolyze”. Also, the “hydrolysis by "atypical" BuChE” value in the data set with "atypical" BuChE [9] is on record as “unable to hydrolyze; also recorded: inability of the affected enzyme to hydrolyze”. Moreover, the post-anesthesia apnea entry in data set [13] is on record as “two hour post-anesthesia apnea”.
